Earlier results, collected in patent US20140099366A1, “Composition Containing Two Anti-Dementia Drugs” (priority 2005, published 2014).
Counter-ions that a name gives are not always drawn.

System: patients with moderate to severe Alzheimer-type dementia
Settings: added to donepezil hydrochloride already administered, compared to placebo group

**Q.** With `CC12CC3CC(C)(C1)CC(N)(C3)C2` [memantine hydrochloride] as the molecule, how does the “cognitive ability and activities of daily living” value read?
**A.** improved
